Results as given in US9526730B2, “Use of a DPP-4 inhibitor in podocytes related disorders and/or nephrotic syndrome” (Boehringer Ingelheim International GmbH, priority 2012, dated 2016).

Assays:
diabetic db/db mice = test: Diabetic nephropathy model: male diabetic db/db mice treated for 12 weeks (renal histology, immunohistochemistry, albumin excretion); assay type: in vivo, mouse; conditions: for effect on fasted or post-prandial glucose levels / Podocalyxin expression (glomerular staining score 0-3): 12 weeks; for Podocalyxin expression (glomerular staining score 0-3): linagliptin 3 mg/kg/day, enalapril 20 mg/kg/day, db/db vehicle 1.59±0.2, db/+ 2.65±0.1; for glomerular mesangial matrix expansion compared with diabetic vehicle / tubulointerstitial fibrosis compared with diabetic vehicle: histology
Method: The expression of podocalyxin is analyzed by immunohistochemistry using a podocalyxin specific antibody. Kidney sections from male diabetic db/db mice (10 weeks old at start and treated for 3 months) in the following groups are analyzed:
Diabetic control (n=10), linagliptin 3 mg/kg (n=8), enalapril 20 mg/kg (n=10) and heterozygous control mice (n=8).
All of the evaluations of the glomerular staining intensities are done semiquantitatively by two different experts of kidney pathology blinded for the slides.
The predefined scoring gradient is 0, 1, 2, and 3. 0 means no expression, whereas 3 is given when expression is highest. Group means are compared with a non-parametric test. P values less than 0.05 are considered significant.
Diabetic nephropathy is the main cause of end-stage renal disease. This study investigated the effects of linagliptin on diabetic nephropathy in severe insulin-resistant and old db/db mice as a model for diabetic nephropathy. Male diabetic db/db mice (10 weeks) were divided into 3 groups and treated for 12 weeks with vehicle (n=10), linagliptin 3 mg/kg/day (n=8), or the angiotensin converting enzyme (ACE) inhibitor enalapril 20 mg/kg/day (n=10).
Heterozygous db/+ mice treated with vehicle were used as controls (n=8). Levels of glucose, triglycerides, insulin, cystatin C and creatinine were analyzed in serum and urine samples at baseline and monthly thereafter. Body weight, urinary albumin excretion and OGTT were monitored periodically.
Renal histology (glomerulosclerosis, tubulointerstitial fibrosis) and expression of the sialoglycoprotein podocalyxin (a marker of podocyte integrity in the glomeruli, marker for glomerular damage), glucagon-like peptide 1 receptor (GLP-1R), alpha-smooth muscle actin and type I collagen were evaluated at the end of the study.

[1] = Pooled analysis of seven placebo-controlled trials: UACR in elderly (>=65 years) T2D patients with diabetic nephropathy (set 2); assay type: in vivo, human
Method: (§1) Seven randomised, double-blind, placebo-controlled trials (duration 24-52 weeks) of linagliptin (5 mg q.d.) as monotherapy or add-on to various glucose-lowering background therapies had data available for urinary albumin-to-creatinine ratio (UACR) and were eligible for this analysis (n=4113). Data after 24 weeks of treatment were generated to allow pooling and two sets were defined: 1) Diabetic nephropathy in earlier stages of T2D (with and without oral glucose-lowering background therapies, such as e.g. linagliptin monotherapy, linagliptin add-on to metformin or linagliptin add-on to metformin plus a sulphonylurea, or linagliptin plus metformin initial combination): participants from four 24-week pivotal phase III trials if they had persistent albuminuria, defined as 30≦UACR≦3000 mg/g (eGFR>30 ml/min/1.73 m^2) and stable treatment with an angiotensin-converting enzyme inhibitor (ACEi) or angiotensin II receptor blocker (ARB) at baseline (ongoing treatment with ACEi or ARB); 2) Diabetic nephropathy in elderly patients (various glucose-lowering background therapies including insulin, such as e.g. linagliptin monotherapy, linagliptin add-on to metformin or linagliptin add-on to metformin plus a sulphonylurea, or linagliptin plus metformin initial combination, or linagliptin in combination with basal insulin): patients from all seven trials, fulfilling UACR criteria 30≦UACR≦3000 mg/g (eGFR>30 ml/min/1.73 m^2) and aged ≧65 years (with or without ongoing treatment with ACEi or ARB). The endpoint in both sets was the percentage change in geometric mean UACR after 24 weeks.

[2] = test system: rats with 5/6 nephrectomy; test: Rat model of chronic kidney disease (5/6 nephrectomy), 130 days; conditions: for glomerulosclerosis (glomerulosclerosic index) / decrease of glomerular size vs PBO-treated 5/6 NX rats / decrease of interstitial fibrosis vs PBO-treated 5/6 NX rats: 130 days; for osteopontin vs PBO-treated 5/6 NX rats: plasma biomarker
[3] = Pharmacokinetics of BI 1356, multiple oral doses once daily for 12 days in patients with type 2 diabetes; conditions: for feT,ss: steady state (Day 12); for feT,ss / fe0-24: gMean; for fe0-24: fraction excreted in urine
[4] = Pooled analysis of four 24-week placebo-controlled trials: albuminuria (UACR) in T2D patients with early diabetic nephropathy on stable ACE/ARB (set 1); assay type: in vivo, human
Description: Despite optimal therapy, people with type 2 diabetes (T2D) remain at high risk for kidney damage, manifest as albuminuria, and many develop progressive renal failure. Further, despite optimal therapy with inhibitors of the renin-angiotensin-aldosterone systeme (RAAS), patients with type 2 diabetes mellitus (T2DM) remain at an increased risk of progressive renal failure and cardiovascular disease, for which album inuria has emerged as a predictive biomarker. Linagliptin, a DPP-4 inhibitor, has previously shown evidence of albumin lowering on top of telmisartan in mice. We explored the clinical effect of linagliptin on albuminuria in T2D patients with early diabetic nephropathy. Four randomized, double-blind, 24-week, placebo-controlled trials of linagliptin (5 mg qd) on no, mono, or dual oral glucose-lowering background therapy (such as e.g. linagliptin monotherapy, linagliptin add-on to metformin or linagliptin add-on to metformin plus a sulphonylurea, or linagliptin plus metformin initial combination) had data available for urinary albumin-to-creatinine ratio (UACR) and were pooled for analysis (n=2472). Participants were included in this analysis if they had: i) 30≦UACR≦3000 mg/g creatinine; ii) stable treatment with ACE/ARBs ≧4 weeks prior and during the trial; and iii) eGFR>30 ml/min/1.73 m^2. The endpoint was the percentage change in geometric mean UACR. In this analysis, 492 (19.9%) patients met UACR and eGFR thresholds of whom 46% received stable ACE/ARB therapy (linagliptin n=168; placebo n=59). Mean baseline A1C and median UACR were 8.2% vs 8.5% and 76 vs 78 mg/g creatinine for the linagliptin and placebo groups, respectively. After 24 weeks, placebo-corrected changes in A1C and FPG were −0.71% and −26 mg/dl, respectively (both p<0.0001). […] Overall, kidney function and blood pressure were unchanged although more patients on placebo received new anti-hypertensive drugs (17% vs 11% with linagliptin). […] Linagliptin may have kidney-protective properties beyond glucose-lowering effects. This protective effect may be independent of race. Linagliptin may be useful for treating or lowering albuminuria on top of standard of care of angiotensin-converting enzyme (ACE) inhibition or angiotensin II receptor blockade (ARB) in T2DM patients with early diabetic nephropathy.
as §1

[5] = Safety and tolerability in people with type 2 diabetes
[6] = Meta-analysis of 13 phase 3 placebo-controlled trials: renal safety and outcomes in 5466 patients with type 2 diabetes
Description: The aim of this study was to evaluate renal safety/outcomes with linagliptin in phase 3, randomized, double-blind, placebo-controlled trials (≧12 wks).

[7] = LIN 0.083 mg/kg in chow, TEL 5 mg/kg/d in drinking water
[8] = linagliptin 5 mg qd, after 24 weeks, set 1

## CCOC(=O)[C@H](CCc1ccccc1)N[C@@H](C)C(=O)N1CCC[C@H]1C(=O)O [enalapril, reference compound]
Diabetic db/db mice
  effect on fasted or post-prandial glucose levels: limited effects
  Podocalyxin expression (glomerular staining score 0-3): 2.4±0.2
Diabetic db/db mice; p<0.05
  glomerular mesangial matrix expansion compared with diabetic vehicle: reduced almost to control levels
  tubulointerstitial fibrosis compared with diabetic vehicle: reduced almost to control levels

## CC#CCn1c(N2CCC[C@@H](N)C2)nc2c1c(=O)n(Cc1nc(C)c3ccccc3n1)c(=O)n2C [linagliptin]
[1]; all seven studies
  blood pressure and renal function: not affected to a clinically meaningful extent
[1]; as early as
  treatment duration at which overall UACR effect occurs: 12 weeks
[1]; linagliptin 5 mg q.d., 24 weeks, set 2
  reduction of UACR versus placebo (trend): −25%
[1]; linagliptin 5 mg q.d., 24 weeks, set 2, aged >=65 years
  lowering of adjusted UACR: 30%
Diabetic db/db mice
  expression of α-smooth muscle actin-positive myofibroblasts in interstitium and glomeruli: normalized
  effect on fasted or post-prandial glucose levels: limited effects
  Podocalyxin expression (glomerular staining score 0-3): 2.3±0.2
Diabetic db/db mice; blood glucose independent
  loss of podocytes (podocalyxin staining): significantly reduces
Diabetic db/db mice; p<0.05
  glomerular mesangial matrix expansion compared with diabetic vehicle: reduced almost to control levels
  tubulointerstitial fibrosis compared with diabetic vehicle: reduced almost to control levels
  Urinary albumin excretion rates compared with enalapril-treated mice: significantly decreased
  tubulointerstitial fibrosis compared with enalapril-treated mice: significantly decreased
Diabetic db/db mice; linagliptin 3 mg/kg/day 12 weeks, vehicle db/db 1.67±0.07, healthy 2.15±0.1
  GLP-1R expression in the glomeruli (immunohistochemical staining): 1.90±0.04
[2]; 5/6 NX rats
  Blood pressure lowering: unaffected
  glomerulosclerosis (glomerulosclerosic index): trend towards decreased
[2]; [7]
  decrease of glomerular size vs PBO-treated 5/6 NX rats: 18%
  decrease of interstitial fibrosis vs PBO-treated 5/6 NX rats: 48%
[2]
  osteopontin vs PBO-treated 5/6 NX rats: decreases
[2]; rat, in vivo
  plasma concentration of B2M vs PBO-treated 5/6 NX rats: decreases
  plasma concentration of TIMP-1 vs PBO-treated 5/6 NX rats: decreases
[3]; 1 mg oral once daily
  feT,ss: 3.34%
[3]; 2.5 mg oral once daily
  feT,ss: 3.06%
  fe0-24: 0.139%
[3]; 5 mg oral once daily
  feT,ss: 6.27%
  fe0-24: 0.453%
[3]; 10 mg oral once daily
  feT,ss: 3.22%
  fe0-24: 0.919%
[3]; doses above 1 mg once daily
  mean accumulation ratio RA,AUC: ≤ 1.4
[3]; human, in vivo
  excretion of unchanged drug: primarily excreted unchanged via the bile
[3]; therapeutic oral dose levels
  excretion via the kidney: < 7 % of the administered oral dose
  main route of excretion: mainly excreted via the liver
[4]; 24 weeks
  kidney function and blood pressure: unchanged
[4]; linagliptin 5 mg qd, 24 weeks, on stable ACE/ARB, set 1
  lowering of adjusted UACR (geometric mean): 33%
[4]; linagliptin 5 mg qd, 24 weeks, set 1
  between group difference vs placebo in UACR: −29%
[4]; [8]
  placebo-corrected change in A1C (HbA1c): −0.71%
  placebo-corrected change in FPG: -26 mg/dL
  placebo-corrected change in fasting plasma glucose: -1.4 mmol/L
[5]
  safety and tolerability: placebo-like
[6]; linagliptin 5 mg qd, n=3505, placebo 306
  patients with composite renal endpoint events (number): 448 patients
[6]; linagliptin 5 mg qd, placebo 15.6%
  patients with composite renal endpoint events (proportion): 12.8%
[6]; patients <65 yrs
  HR for the composite endpoint: 0.77
[6]; patients >65 yrs
  HR for the composite endpoint: 1.04
[6]; vs placebo
  RR change: ARF: −7%
  RR change: death: −23%
  RR change: macroalbuminuria: −12%
  RR change: microalbuminuria: −15%
  RR change: new onset of CKD: −56%
  RR change: worsening of CKD: −24%

## CCCc1nc2c(C)cc(-c3nc4ccccc4n3C)cc2n1Cc1ccc(-c2ccccc2C(=O)O)cc1 [telmisartan, reference compound]
[2]; 5/6 NX rats
  Blood pressure lowering: 31 mmHg
  TGF-β expression: significantly decreases
  glomerulosclerosis (glomerulosclerosic index): trend towards decreased
[2]; [7]
  decrease of urinary albumin/creatinine ratio vs PBO-treated 5/6 NX rats: 92%
  decrease of glomerular size vs PBO-treated 5/6 NX rats: not significantly
  decrease of interstitial fibrosis vs PBO-treated 5/6 NX rats: 24%
[2]
  osteopontin vs PBO-treated 5/6 NX rats: significantly decreases
